Assay results reported in BindingDB's records for doi:10.1016/j.ejmech.2009.09.025 (2010).

target: Glutamate receptor ionotropic, kainate 2 (GluK2/GRIK2) (Homo sapiens) (UniProt Q13002); assay: Antagonist activity at human recombinant GluR6 expressed in HEK cells coexpressing aequorine assessed as inhibition of glutamate-induced Ca2+ influx at 10 uM by luminescence reporter assay
Sequence (Q13002 whole entry, looked up): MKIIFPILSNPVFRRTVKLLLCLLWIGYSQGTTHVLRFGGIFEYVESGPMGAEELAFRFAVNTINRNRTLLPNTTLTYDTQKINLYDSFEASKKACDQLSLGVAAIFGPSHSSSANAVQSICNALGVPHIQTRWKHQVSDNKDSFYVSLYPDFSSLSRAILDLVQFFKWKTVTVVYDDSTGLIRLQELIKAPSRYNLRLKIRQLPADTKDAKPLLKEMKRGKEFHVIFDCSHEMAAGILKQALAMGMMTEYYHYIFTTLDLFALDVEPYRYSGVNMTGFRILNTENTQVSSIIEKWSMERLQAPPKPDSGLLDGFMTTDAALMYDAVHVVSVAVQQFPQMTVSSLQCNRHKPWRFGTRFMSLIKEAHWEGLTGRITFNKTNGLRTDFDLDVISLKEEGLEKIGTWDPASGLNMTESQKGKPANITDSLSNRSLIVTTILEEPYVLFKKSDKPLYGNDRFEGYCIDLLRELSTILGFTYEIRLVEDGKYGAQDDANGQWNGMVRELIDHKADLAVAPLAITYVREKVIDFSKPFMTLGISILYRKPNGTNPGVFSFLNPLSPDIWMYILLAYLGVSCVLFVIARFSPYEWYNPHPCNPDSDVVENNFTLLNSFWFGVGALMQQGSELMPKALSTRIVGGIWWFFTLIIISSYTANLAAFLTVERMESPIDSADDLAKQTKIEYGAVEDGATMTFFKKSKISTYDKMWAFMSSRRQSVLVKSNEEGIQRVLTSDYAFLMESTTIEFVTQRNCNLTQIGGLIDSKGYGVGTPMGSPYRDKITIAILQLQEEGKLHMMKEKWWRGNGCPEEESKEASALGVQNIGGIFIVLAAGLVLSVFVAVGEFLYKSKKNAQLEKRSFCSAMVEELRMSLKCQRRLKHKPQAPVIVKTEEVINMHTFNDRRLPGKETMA

Compound	IC50 [µM]
N#Cc1cc2c(cc1[N+](=O)[O-])=NC(=O)C(=O)N=2 [7-nitro-2,3-dioxo-2,3-dihydroquinoxaline-6-carbonitrile]	23
CCOC(=O)c1c(N)sc(-c2ccccc2)c1C [Ethyl 2-amino-4-methyl-5-phenylthiophene-3-carboxylate]	0.75
C[C@H](C[C@H](N)C(=O)O)C(=O)O [2-Amino-4-methyl-pentanedioic acid]	4
CCOC(=O)c1c(N)sc(-c2ccc(OC)cc2)c1C [Ethyl 2-amino-5-(4-methoxyphenyl)-4-methylthiophene-3-carboxylate]	8.6
CCCOC(=O)c1c(N)sc(-c2ccccc2)c1C [Propyl 2-amino-4-methyl-5-phenylthiophene-3-carboxylate]	2.4
CCOC(=O)c1c(N)sc(-c2ccccc2)c1-c1ccccc1 [Ethyl 2-amino-4,5-diphenylthiophene-3-carboxylate]	4.5
COC(=O)c1c(N)sc(-c2ccccc2)c1C [Methyl 2-amino-4-methyl-5-phenylthiophene-3-carboxylate]	4.1
CCOC(=O)c1c(N)sc(-c2ccccc2Cl)c1C [Ethyl 2-amino-5-(2-chlorophenyl)-4-methylthiophene-3-carboxylate]	5.7
CCOC(=O)c1c(N=C=S)sc(-c2ccccc2)c1C [2-isothiocyanato-4-methyl-5-phenylthiophene-3-carboxylate]	3.5
CCOC(=O)c1c(N=NC#N)sc(-c2ccccc2)c1C [Ethyl 2-(cyanodiazenyl)-4-methyl-5-phenylthiophene-3-carboxylate]	21

Other lines, results leading:

IC50 [µM]	Compound
3.6	Cc1c(-c2ccccc2)sc(N)c1C(=O)OC(C)(C)C [Tert-Butyl 2-amino-4-methyl-5-phenylthiophene-3-carboxylate]
10.6	Cc1c(-c2ccccc2)sc(N)c1C(=O)c1ccccc1 [(2-Amino-4-methyl-5-phenylthiophen-3-yl)(phenyl)methanone]
12	CCOC(=O)c1c(N)sc(-c2ccc(F)cc2)c1C [Ethyl 2-amino-5-(4-fluorophenyl)-4-methylthiophene-3-carboxylate]
10	CCOC(=O)c1c(Cl)sc(-c2ccccc2)c1C [Ethyl 2-chloro-4-methyl-5-phenylthiophene-3-carboxylate]
38	CCOC(=O)c1c(N=NN(C)C)sc(-c2ccccc2)c1C [Ethyl 2-(3,3-dimethyltriaz-1-enyl)-4-methyl-5-phenylthiophene-3-carboxylate]
54	CCOC(=O)c1c(N=NN2CCOCC2)sc(-c2ccccc2)c1C [Ethyl 4-methyl-2-(morpholinodiazenyl)-5-phenylthiophene-3-carboxylate]
71	Cc1c(-c2ccccc2)sc(N)c1C#N [2-Amino-4-methyl-5-phenylthiophene-3-carbonitrile]
6.5	Clc1ccc(CO[C@@H](Cn2ccnc2)c2ccc(Cl)cc2Cl)c(Cl)c1 [Brentan]

target: Glutamate receptor ionotropic, kainate 1 (GluK1/GRIK1) (Homo sapiens) (UniProt P39086); assay: Antagonist activity at human recombinant GluR5 expressed in HEK cells coexpressing aequorine assessed as inhibition of glutamate-induced Ca2+ influx by luminescence reporter assay
Sequence (P39086 whole entry, looked up): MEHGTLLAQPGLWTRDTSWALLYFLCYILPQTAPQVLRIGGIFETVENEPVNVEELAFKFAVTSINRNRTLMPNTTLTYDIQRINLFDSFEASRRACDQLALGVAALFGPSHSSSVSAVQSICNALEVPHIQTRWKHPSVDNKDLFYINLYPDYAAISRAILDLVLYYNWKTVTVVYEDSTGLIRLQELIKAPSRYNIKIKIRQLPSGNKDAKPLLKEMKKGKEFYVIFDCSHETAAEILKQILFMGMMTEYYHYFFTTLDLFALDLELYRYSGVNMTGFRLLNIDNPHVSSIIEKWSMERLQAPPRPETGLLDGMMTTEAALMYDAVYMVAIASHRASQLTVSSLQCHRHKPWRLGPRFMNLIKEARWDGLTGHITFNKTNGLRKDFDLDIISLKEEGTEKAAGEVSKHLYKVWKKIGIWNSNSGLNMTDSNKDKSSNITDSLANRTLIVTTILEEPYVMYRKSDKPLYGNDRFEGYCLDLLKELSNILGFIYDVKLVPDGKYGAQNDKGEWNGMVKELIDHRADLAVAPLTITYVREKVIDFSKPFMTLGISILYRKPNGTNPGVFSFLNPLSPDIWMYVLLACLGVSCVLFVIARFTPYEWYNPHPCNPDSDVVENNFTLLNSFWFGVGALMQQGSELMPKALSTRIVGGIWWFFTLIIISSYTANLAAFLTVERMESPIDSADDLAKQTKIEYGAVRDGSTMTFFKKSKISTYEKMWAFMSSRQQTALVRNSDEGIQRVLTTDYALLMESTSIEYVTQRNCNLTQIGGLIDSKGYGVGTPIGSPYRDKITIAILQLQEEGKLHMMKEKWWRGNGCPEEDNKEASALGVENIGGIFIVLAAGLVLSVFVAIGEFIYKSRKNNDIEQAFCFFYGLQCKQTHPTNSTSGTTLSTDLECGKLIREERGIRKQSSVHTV

IC50 [µM]	Compound
30	COC(=O)c1c(N)sc(-c2ccccc2)c1C [Methyl 2-amino-4-methyl-5-phenylthiophene-3-carboxylate]
